Measurements reported in ChEMBL document CHEMBL1152535, “Synthesis of branched 9-[2-(2-phosphonoethoxy)ethyl]purines as a new class of acyclic nucleoside phosphonates which inhibit Plasmodium falciparum hypoxanthine-guanine-xanthine phosphoribosyltransferase” (Bioorg Med Chem, 2009).

How the values were obtained:
[1] = Inhibition of Plasmodium falciparum recombinant HGXPRT expressed in Escherichia coli by spectrophotometric assay
[2] = target: T1, Hypoxanthine-guanine phosphoribosyltransferase (Homo sapiens, UniProt P00492); assay: Inhibition of human recombinant HGPRT expressed in Escherichia coli by spectrophotometric assay
T1 sequence (P00492 whole entry): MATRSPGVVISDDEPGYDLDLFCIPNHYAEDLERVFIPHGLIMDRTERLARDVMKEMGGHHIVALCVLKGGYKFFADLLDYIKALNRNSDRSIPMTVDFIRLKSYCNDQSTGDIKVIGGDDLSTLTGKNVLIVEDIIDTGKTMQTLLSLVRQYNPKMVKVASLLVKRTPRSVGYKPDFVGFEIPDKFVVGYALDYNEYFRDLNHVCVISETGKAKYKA

[3] = Selectivity ratio of Ki for human recombinant HGPRT to Ki for Plasmodium falciparum recombinant HGXPRT

Ki [2] [µM]	Ratio Ki [3]	SMILES	Ki [1] [µM]
2	0.2	CC(CP(=O)(O)O)OCCn1cnc2c(=O)[nH]cnc21 (configuration not stated)	10
0.1	0.1	CC(CP(=O)(O)O)OCCn1cnc2c(=O)[nH]c(N)nc21 (configuration not stated)	1
0.3	0.06	CCC(CP(=O)(O)O)OCCn1cnc2c(=O)[nH]c(N)nc21 (configuration not stated)	5
10	0.15	CCC(CP(=O)(O)O)OCCn1cnc2c(=O)[nH]cnc21 (configuration not stated)	69
